Measured values from patent US6448269B1 (Eli Lilly and Company, priority 1993, dated 2002).
Structures can show the parent of a compound that is named as a salt. Where two headings read alike, the source gives them in different places.

Experiments:
[1] = test system: human platelet-rich plasma; experiment: Platelet aggregation assay (Aggregation-Human PRP/ADP); type: cell-based; conditions: human platelet-rich plasma incubated with compound 1 minute at 37° C., ADP-induced aggregation, read-out: Agg: Human PRP/ADP IC50uM
Description: Platelet-rich plasma was prepared from healthy human volunteers for use in determining inhibition of platelet aggregation by the compounds.
Platelet-rich plasma was prepared at room temperature by centrifugation of the citrated whole blood at 100×g for 12 minutes. The platelet rich plasma contained approximately 200-400,000 platelets/μl.
Platelet-poor plasma was prepared by centrifugation of citrated whole blood at 12,000×g for 2 minutes.
Platelet aggregation was assayed in a 4-channel platelet aggregation profiler (PAP-4, Biodata, Hatboro, Pa.) according to the manufacturers directions. Inhibition of platelet aggregation was studied by adding varying amounts of […] to stirred human platelet-rich plasma. Specifically, the human platelet-rich plasma was incubated with the compound being tested for 1 minute at 37° C. prior to the addition of a variety of aggregating agents most often ADP 5 μM, but also 1 μg/ml collagen, 1 μM U46619 and 0.3 μM platelet activating factor.

GPIIb-IIIa = biological target: T1, GPIIb-IIIa (Homo sapiens, UniProt P05106+P08514); experiment: ELISA IIb-IIIa assay (fibrinogen binding to immobilized GPIIb-IIIa); conditions: purified platelet GPIIb-IIIa receptor coated on ELISA plates; biotin-labeled fibrinogen 10 nM, 3 hours at 25° C.
T1 construct: Purified platelet GPIIb-IIIa receptor was prepared as described by Fitzgerald; from tissue; host or cells: platelets
T1 sequence (P08514 32-887 limits assumed): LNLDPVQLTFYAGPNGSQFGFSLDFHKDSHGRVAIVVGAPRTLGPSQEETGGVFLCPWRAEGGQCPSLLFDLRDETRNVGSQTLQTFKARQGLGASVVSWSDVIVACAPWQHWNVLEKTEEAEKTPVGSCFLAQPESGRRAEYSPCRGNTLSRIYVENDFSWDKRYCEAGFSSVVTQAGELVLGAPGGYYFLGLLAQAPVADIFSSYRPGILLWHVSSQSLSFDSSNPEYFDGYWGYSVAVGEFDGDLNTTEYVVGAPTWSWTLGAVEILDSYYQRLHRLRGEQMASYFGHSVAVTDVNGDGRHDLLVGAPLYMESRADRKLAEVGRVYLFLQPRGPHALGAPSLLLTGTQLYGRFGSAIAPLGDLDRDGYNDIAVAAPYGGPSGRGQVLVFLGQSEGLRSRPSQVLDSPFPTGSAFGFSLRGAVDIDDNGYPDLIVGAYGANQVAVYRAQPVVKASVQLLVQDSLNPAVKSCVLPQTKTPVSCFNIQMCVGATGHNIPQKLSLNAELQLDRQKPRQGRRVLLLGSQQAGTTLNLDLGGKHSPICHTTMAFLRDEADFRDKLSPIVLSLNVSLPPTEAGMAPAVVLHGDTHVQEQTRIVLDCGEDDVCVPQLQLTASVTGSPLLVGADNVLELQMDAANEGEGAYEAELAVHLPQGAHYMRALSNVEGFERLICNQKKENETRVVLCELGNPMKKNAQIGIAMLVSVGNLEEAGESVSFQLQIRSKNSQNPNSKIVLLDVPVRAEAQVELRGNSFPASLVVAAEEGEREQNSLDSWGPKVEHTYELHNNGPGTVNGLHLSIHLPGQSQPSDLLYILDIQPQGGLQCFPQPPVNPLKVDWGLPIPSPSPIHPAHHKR
T1 sequence (P05106 27-788): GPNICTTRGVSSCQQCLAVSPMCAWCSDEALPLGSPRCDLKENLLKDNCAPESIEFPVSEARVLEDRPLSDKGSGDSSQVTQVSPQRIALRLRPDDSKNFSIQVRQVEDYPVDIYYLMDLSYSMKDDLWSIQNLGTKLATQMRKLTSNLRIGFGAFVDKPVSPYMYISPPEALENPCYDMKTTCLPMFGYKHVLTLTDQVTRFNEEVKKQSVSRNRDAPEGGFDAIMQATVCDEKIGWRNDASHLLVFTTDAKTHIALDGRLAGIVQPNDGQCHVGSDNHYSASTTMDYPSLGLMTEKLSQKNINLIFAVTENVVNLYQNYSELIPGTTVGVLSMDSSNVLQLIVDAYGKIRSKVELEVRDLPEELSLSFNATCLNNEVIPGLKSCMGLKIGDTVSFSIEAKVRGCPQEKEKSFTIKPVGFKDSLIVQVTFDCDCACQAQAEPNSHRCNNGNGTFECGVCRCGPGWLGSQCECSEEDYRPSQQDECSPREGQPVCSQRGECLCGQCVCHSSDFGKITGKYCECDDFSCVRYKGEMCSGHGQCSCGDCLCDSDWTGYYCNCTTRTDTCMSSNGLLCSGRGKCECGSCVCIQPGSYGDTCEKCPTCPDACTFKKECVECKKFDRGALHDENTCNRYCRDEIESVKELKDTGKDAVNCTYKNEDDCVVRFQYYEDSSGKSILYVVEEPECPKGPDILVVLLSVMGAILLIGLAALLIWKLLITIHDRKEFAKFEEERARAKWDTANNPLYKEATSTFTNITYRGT
Description: In the following assay, GPIIb-IIIa is prepared in purified form, by a method such as described by Fitzgerald, L. A., et al., Anal Biochem (1985) 151:169-177, (the disclosure of which is incorporated herein by reference). GPIIb-IIIa is coated onto microtiter plates. The coated support is then contacted with fibrinogen and with the test material (e.g., compounds of Formula I) and incubated for a sufficient time to permit maximal binding of fibrinogen to the immobilized GPIIb-IIIa. Fibrinogen is typically provided at a concentration of about 5-50 nM and the test material can, if desired, be added at a series of dilution. Typical incubations are 2 to 4 hours at 25° C., the time and temperature being interdependent.
After incubation, the solution containing the fibrinogen and test material is removed and the level of binding of fibrinogen measured by quantitating bound fibrinogen to GPIIb-IIIa. Any suitable means of detection may be used, but it is convenient to employ labeled fibrinogen, for example using biotinylated labels. Such methods are well known in the art.
Purified platelet GPIIb-IIIa receptor was prepared as described by Fitzgerald, L. A., et al., Anal Biochem (1985) 151:169-177 (1985). Vitronectin receptor was prepared as described by Smith, J. W., J. Biol Chem (1988) 263:18726-18731. After purification, the receptors were stored in 0.1% Triton X-100 at 0.1-1.0 mg/ml.
The receptors were coated to the wells of 96-well flat-bottom ELISA plates (Linbro EIA-Plus microtiter plate, Flow Laboratories) after diluting 1:200 with a solution of 20 mM Tris-HCl, 150 mM NaCl, 1 mM CaCl2, pH 7.4, to reduce the Triton X-100 concentration to below its critical micellar concentration and adding an aliquot of 100 ul to each well. The wells were all allowed to incubate overnight at 4° C., and then aspirated to dryness. Additional sites were blocked by the addition of bovine serum albumin (BSA) at 35 mg/ml in the above buffer for 2 hours at 30° C. to prevent nonspecific binding. The wells were then washed once with binding buffer ([…] Tris-HCl, 100 mM NaCl 2 mM CaCl2, 1 mg/ml BSA).
The corresponding ligands (fibrinogen, von Willebrand Factor, or vitronectin) were conjugated to biotin using commercially available reagents and standard protocols. The labeled ligands were added to the receptor-coated wells at final concentration of 10 nM (100 ul/well) and incubated for 3 hours at 25° C. in the presence or absence of the test samples. After incubation, the wells are aspirated to dryness and bound ligand is quantitated.
The bound protein is detected by the addition of antibiotin antibody conjugated to alkaline phosphatase followed by addition of substrate (p-nitrophenyl phosphate), and determination of the optical density of each well at […]. Decreased color development is observed in wells incubated with test samples which inhibit binding of ligand to receptor.

IC50 [1] [µM] | Compound | IC50 ([1]; 1 min) [µM] | IC50 (GPIIb-IIIa) [nM]
– | N=C(N)c1ccc(COc2ccc3c(c2)CCC(CC(=O)O)O3)cc1 (racemic) [Example 46, rac-(6-(4-(Aminoiminomethyl)phenylmethoxy)-3,4-dihydro-2H-1-benzopyran-2-yl)acetic Acid Trifluoroacetate] | 2.5 | 3.3
– | CC1(CCCCCCCCC(=O)O)C=Cc2cc(C(=N)N)ccc2O1 (racemic) [Example 60, rac-9-(6-Aminoiminomethyl-2-methyl-2H-1-benzopyran-2-yl)nonanoic Acid] | > 10 | 1800
– | CCNC(=N)c1ccc(C(=O)Nc2ccc3c(c2)CCC(CC(=O)O)O3)cc1 (racemic) [Example 72, rac-(3,4-Dihydro-6-(N-(4-((ethylamino)iminomethyl)benzoyl)amino)-2H-1-benzopyran-2-yl)acetic Acid] | 0.28 | 18.5
– | N=C(N)c1ccc(C(=O)Nc2ccc3c(c2)CCC(CC(=O)O)C3=O)c(F)c1 (centres unmarked) [Example 32] | 0.1 | 4
– | N=C(N)c1ccc(NC(=O)c2ccc3c(c2)CCC(CC(=O)O)C3)cc1 (centres unmarked) [Example 40] | 1.6 | 53
– | O=C(O)CC1CCc2cc(OCCC3CCNCC3)ccc2O1 (racemic) [Example 61, rac-(3,4-Dihydro-6-(2-(piperidin-4-yl)ethoxy)-2H-1-benzopyran-2-yl)acetic Acid Trifluoroacetate] | 100 | > 1000
– | CNC(=N)c1ccc(C(=O)Nc2ccc3c(c2)CCC(CC(=O)O)O3)cc1 (racemic) [Example 58, rac-(3,4-Dihydro-6-(N-(4-((methylamino)iminomethyl)benzoyl)amino)-2H-1-benzopyran-2-yl)acetic Acid] | 0.28 | 33.4
– | N=C(N)c1ccc(C(=O)Nc2ccc3c(c2)CCC(OCC(=O)O)C3)cc1 (centres unmarked) [Example 29] | 0.28 | 15
– | CNC(=O)C(CC(=O)O)N1CCc2cc(OCc3ccc(C(=N)N)cc3)ccc2C1=O (racemic) [Example 8, (+−)-6-[[4-(Aminoiminomethyl)phenyl]methoxy]-3,4-dihydro-beta-[(methylamino)carbonyl]-1-oxo-2(1H)-isoquinoline Propanoic Acid Trifluoroacetate] | 0.55 | 80
– | N=C(N)c1ccc(COc2ccc3c(c2)CCN(CC(=O)O)C3)cc1 [Example 35] | 0.33 | 30
– | CC1(CCC(=O)O)CCc2cc(NC(=O)c3ccc(C(=N)N)cc3)ccc2O1 (racemic) [Example 56, rac-3-(6-(N-(4-(Aminoiminomethyl)benzoyl)amino)-3,4-dihydro-2-methyl-2H-1-benzopyran-2-yl)propanoic Acid] | 0.9 | 140
– | CCOC(=O)CC1CCc2cc(NC(=O)c3ccc(C(=N)N)cc3)ccc2O1 (racemic) [Example 47, Hydrochloride] | 0.24 | 770
– | CCCNC(=N)c1ccc(C(=O)Nc2ccc3c(c2)CCC(CC(=O)O)O3)cc1 (racemic) [Example 82, rac-(3,4-Dihydro-6-(N-(4-((propylamino)iminomethyl)benzoyl)amino)-2H-1-benzopyran-2-yl)acetic Acid] | 0.12 | 19
0.68 | (+−)-6-[[4-(Aminoiminomethyl)phenyl]methoxy]-3,4-dihydro-1-oxo-beta-(1,4-dioxyhexyl)-2(1H)-isoquinoline Propionoic Acid Trifluoroacetate [Example 13] | – | 100
– | CCOC(=O)CC1CCc2cc(NC(=O)c3ccc(C(=N)N)cc3F)ccc2O1 (racemic) [Example 69, Ethyl rac-(6-(N-(4-(Aminoiminomethyl)-2-fluorobenzoyl)amino)-3,4-dihydro-2H-1-benzopyran-2-yl)acetate Hydrochloride] | 0.16 | 9
– | N=C(N)c1cccc(C#Cc2ccc3c(c2)CCN(CC(=O)O)C3=O)c1 [Example 17, 6-[[3-(Aminoiminomethyl)phenyl]ethynyl]-3,4-dihydro-1-oxo-2(1H)-isoquinoline Acetic Acid Trifluoroacetate] | > 100 | 45000
– | O=C(O)COC1CCc2cc(OCCCC3CCNCC3)ccc2C1 (centres unmarked) [Example 24] | 6.5 | 760
– | CCCCCC(CC(=O)O)N1CCc2cc(OCc3ccc(C(=N)N)cc3)ccc2C1=O (racemic) [Example 12, (+−)-6-[[4-(Aminoiminomethyl)phenyl]methoxyl]-3,4-dihydro-1-oxo-b-pentyl-2(1H)-isoquinolinepropanoic Acid Trifluoroacetate] | 0.57 | 24
– | N=C(N)c1ccc(CNC(=O)c2ccc3c(c2)CCN(CC(=O)O)C3=O)cc1 [Example 19, 6-[[(4-Aminoiminomethyl)phenyl]methylaminocarbonyl]-3,4-dihydro-1-oxo-2(1H)isoquinoline Acetic Acid Trifluoroacetate] | > 100 | 13000
